Laboratory results from patent US20070185152A1, “Inhibitors of akt activity” (Smithkline Beecham Corporation, priority 2004, published 2007).

Biological target: T1, AKT1 (Homo sapiens, UniProt P31749)
T1 construct: Insect cells expressing His-tagged AKT1 (aa 136-480) were lysed; His; made in house; host or cells: insect cells
Test: AKT1 kinase inhibition assay (substrate phosphorylation, SPA)
Type: biochemical
Details: catalytic domain of AKT1; 10 nM activated AKT enzyme, 4 uM ATP, 8 uM peptide, 40 minutes at room temperature
Procedure: Isolation and Purification of His-tagged AKT1 (aa 136-480)
Insect cells expressing His-tagged AKT1 (aa 136-480) were lysed in 25 mM HEPES, 100 mM NaCl, 20 mM imidazole; pH 7.5 using a polytron (5 mLs lysis buffer/g cells). Cell debris was removed by centrifuging at 28,000×g for 30 minutes. The supernatant was filtered through a 4.5-micron filter then loaded onto a nickel-chelating column pre-equilibrated with lysis buffer. The column was washed with 5 column volumes (CV) of lysis buffer then with 5 CV of 20% buffer B, where buffer B is 25 mM HEPES, 100 mM NaCl, 300 mM imidazole; pH 7.5. His-tagged AKT1 (aa 136-480) was eluted with a 20-100% linear gradient of buffer B over 10 CV. […]
Compounds of the present invention are tested for AKT 1, 2, and 3 protein serine kinase inhibitory activity in substrate phosphorylation assays. […] Substrate phosphorylation is detected by the following procedure:
Assays are performed in 384well U-bottom white plates. […] The reaction is stopped by the addition of 50 ul SPA bead mix (Dulbecco's PBS without Mg^2+ and Ca^2+, 0.1% Triton X-100, 5 mM EDTA, 50 uM ATP, 2.5 mg/ml Streptavidin-coated SPA beads.) The plate is sealed, the beads are allowed to settle overnight, and then the plate is counted in a Packard Topcount Microplate Scintillation Counter (Packard Instrument Co., Meriden, Conn.). […]

T1 sequence (P31749 136-480): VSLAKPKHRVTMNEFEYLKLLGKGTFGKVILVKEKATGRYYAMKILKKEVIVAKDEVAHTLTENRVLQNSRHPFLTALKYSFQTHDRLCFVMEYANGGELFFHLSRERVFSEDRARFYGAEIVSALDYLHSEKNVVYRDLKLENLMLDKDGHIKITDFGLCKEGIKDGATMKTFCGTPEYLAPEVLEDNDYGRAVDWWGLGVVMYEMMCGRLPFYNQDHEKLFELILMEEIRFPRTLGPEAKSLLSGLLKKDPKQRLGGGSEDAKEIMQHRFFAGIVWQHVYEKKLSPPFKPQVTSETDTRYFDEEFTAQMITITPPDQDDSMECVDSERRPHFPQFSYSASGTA

IC50: 0.182 µM
SMILES: Cc1n[nH]c2ccc(-c3cc(OC[C@@H](N)Cc4ccccc4)cnc3-c3ccccc3)cc12 [Example 1, (S)-1-Benzyl-2-[5-(3-methyl-1H-indazol-5-yl)-6-phenyl-pyridin-3-yloxy]-ethylamine]
